Results from US10479786B2, “Protein kinase inhibitors” (Princeton Drug Discovery Inc, priority 2016, dated 2019).

Columns and labels:
Mino = test: Cell inhibition assay (PrestoBlue, 48 h); format: cell-based; settings: Homo sapiens, Mino cells, read-out: IC50, inhibition of growth
PDGFRβ = biological target: T1, PDGFRβ (Homo sapiens, UniProt P09619); test: Off-chip Mobility Shift Assay, kinase inhibition; format: biochemical; settings: at 10 nM; recombinant PDGFRβ; read-out: inhibition
T1 construct: purchased Carna Biosciences, Inc

YES = biological target: T2, YES (Homo sapiens, UniProt P07947); test: Off-chip Mobility Shift Assay, kinase inhibition; format: biochemical; settings: recombinant YES; for inhibition at 0.001 µM: at 1 nM; for inhibition at 0.01 µM: at 10 nM
T2 construct: purchased Carna Biosciences, Inc

ABL(E255K) = biological target: T3, ABL(E255K) (Homo sapiens, UniProt P00519, E255K); test: Off-chip Mobility Shift Assay, kinase inhibition; format: biochemical; settings: recombinant ABL(E255K); for inhibition at 0.001 µM: at 1 nM; for inhibition at 0.01 µM: at 10 nM
T3 construct: purchased Carna Biosciences, Inc

TEC = biological target: T4, TEC (Homo sapiens, UniProt P42680); test: Off-chip Mobility Shift Assay, kinase inhibition; format: biochemical; settings: at 1 nM; recombinant TEC
T4 construct: purchased Carna Biosciences, Inc
T4 sequence (P42680 1-631): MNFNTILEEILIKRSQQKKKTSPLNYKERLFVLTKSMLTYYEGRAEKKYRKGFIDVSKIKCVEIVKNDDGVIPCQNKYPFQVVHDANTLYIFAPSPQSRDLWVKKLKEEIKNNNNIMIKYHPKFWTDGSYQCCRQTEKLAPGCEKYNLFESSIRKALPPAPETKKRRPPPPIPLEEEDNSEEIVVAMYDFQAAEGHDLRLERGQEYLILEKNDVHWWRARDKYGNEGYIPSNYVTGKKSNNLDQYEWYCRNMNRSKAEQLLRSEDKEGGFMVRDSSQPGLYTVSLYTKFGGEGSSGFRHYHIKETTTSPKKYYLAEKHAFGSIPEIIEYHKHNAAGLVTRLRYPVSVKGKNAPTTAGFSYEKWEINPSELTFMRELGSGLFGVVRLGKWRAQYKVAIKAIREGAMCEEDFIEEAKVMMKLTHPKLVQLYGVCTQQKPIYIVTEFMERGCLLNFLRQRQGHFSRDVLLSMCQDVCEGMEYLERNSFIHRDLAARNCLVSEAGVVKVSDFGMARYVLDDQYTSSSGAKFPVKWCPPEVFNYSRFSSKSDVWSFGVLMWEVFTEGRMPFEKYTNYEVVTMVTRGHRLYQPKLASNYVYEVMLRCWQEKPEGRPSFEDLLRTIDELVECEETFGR

[1] = Pharmacokinetics in Sprague-Dawley rats, 2-in-1 dosing; format: in vivo; settings: rat; for V: intravenous 1 mg/kg
Description: Sprague-Dawley rats (approximate weight 275-300 g, N=3) were dosed intravenously at 5 mL/kg and orally at 10 mL/kg with the above dosing solutions. Blood samples were collected into tubes containing EDTA as the anticoagulant at 0, 0.25 (intravenous only), 0.5, 1, 2, 4, 8, 10, and 24 h post-dosing, and plasma samples were prepared by centrifugation. The plasma samples were mixed with 3× volumes of acetonitrile containing 100 nM reserpine as the internal standard, and centrifuged at 4000 RPM for 15 min. The supernatants were injected for LC/MS analysis which were carried out on a AB Sciex 4000 Q Trap LC/MS/MS system coupled with Shimadzu Prominence UFLCXR 20 series (including a CBM-20A controller, two LC-20ADXR solvent delivery units, SIL-20AC HT autosampler, CTO-20A column oven, and a SPD-20A UV detector). The samples were separated on a Phenomenex Columbus column (C18, 4 μm, 50×2 mm) eluted with two solvent systems: 2 mM ammonium acetate in water containing 0.1% formic acid (A) and methanol (B) at a linear gradient starting with 25% B. Electrospray ionization in positive mode was used to acquire LC/MS/MS data.

FRK = biological target: T5, FRK (Homo sapiens, UniProt P42685); test: Off-chip Mobility Shift Assay, kinase inhibition; format: biochemical; settings: at 10 nM; recombinant FRK
T5 construct: purchased Carna Biosciences, Inc

SRC = biological target: T6, SRC (Homo sapiens, UniProt P12931); test: Off-chip Mobility Shift Assay, kinase inhibition; format: biochemical; settings: recombinant SRC; for inhibition at 0.001 µM: at 1 nM; for inhibition at 0.01 µM: at 10 nM
T6 construct: purchased Carna Biosciences, Inc

FGR = biological target: T7, FGR (Homo sapiens, UniProt P09769); test: Off-chip Mobility Shift Assay, kinase inhibition; format: biochemical; settings: at 10 nM; recombinant FGR; read-out: inhibition
T7 construct: purchased Carna Biosciences, Inc

[2] = Metabolic stability in human liver microsomes; format: in vitro ADME; settings: for In vitro t1/2: 1 μM, human liver microsomes 0.5 mg/mL, NADPH and UDPGA, 37° C.; for metabolic stability compared to dasatinib: human liver microsomes
Description: FIG. 1. Metabolic stability of compounds in human liver microsomal incubations. […] Concentrations at specified times were determined by LC-MS/MS.
The incubation reactions at various time points were quenched by adding 2× volumes of acetonitrile containing 100 nM reserpine. The quenched incubation samples were centrifuged at 4000 RPM for 10 min, and the supernatants injected for LC/MS/MS analysis. LC/MS/MS analysis was carried out on a AB Sciex 4000 Q Trap LC/MS/MS system coupled with Shimadzu Prominence UFLCXR 20 series (including a CBM-20A controller, two LC-20ADXR solvent delivery units, SIL-20AC HT autosampler, CTO-20A column oven, and a SPD-20A UV detector).

DDR2 = biological target: T8, DDR2 (Homo sapiens, UniProt Q16832); test: Off-chip Mobility Shift Assay, kinase inhibition; format: biochemical; settings: at 10 nM; recombinant DDR2; read-out: inhibition
T8 construct: purchased Carna Biosciences, Inc
T8 sequence (Q16832 22-855): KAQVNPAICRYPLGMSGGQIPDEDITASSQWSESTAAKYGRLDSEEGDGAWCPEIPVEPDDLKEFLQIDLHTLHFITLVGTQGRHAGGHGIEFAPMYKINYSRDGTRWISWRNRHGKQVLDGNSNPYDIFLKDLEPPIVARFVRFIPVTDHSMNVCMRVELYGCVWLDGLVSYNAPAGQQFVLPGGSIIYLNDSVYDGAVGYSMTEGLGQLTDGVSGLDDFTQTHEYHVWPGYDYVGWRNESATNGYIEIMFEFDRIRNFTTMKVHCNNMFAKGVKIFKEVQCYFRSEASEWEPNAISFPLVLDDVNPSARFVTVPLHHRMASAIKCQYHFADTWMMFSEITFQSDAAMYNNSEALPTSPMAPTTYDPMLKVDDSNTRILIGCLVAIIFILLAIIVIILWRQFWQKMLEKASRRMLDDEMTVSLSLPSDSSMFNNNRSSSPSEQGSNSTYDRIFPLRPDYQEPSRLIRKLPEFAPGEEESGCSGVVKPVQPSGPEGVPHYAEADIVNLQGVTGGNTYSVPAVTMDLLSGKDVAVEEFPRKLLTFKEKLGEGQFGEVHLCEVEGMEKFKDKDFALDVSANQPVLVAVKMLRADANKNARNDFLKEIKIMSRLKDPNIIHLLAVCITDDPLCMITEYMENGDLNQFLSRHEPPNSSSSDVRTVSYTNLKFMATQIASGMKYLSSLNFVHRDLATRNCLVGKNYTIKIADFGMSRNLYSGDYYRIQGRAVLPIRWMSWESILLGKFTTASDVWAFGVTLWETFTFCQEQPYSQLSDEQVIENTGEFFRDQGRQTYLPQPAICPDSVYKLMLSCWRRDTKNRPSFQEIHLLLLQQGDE

[3] = Table 3, co-dosed with compound X
[4] = Table 2, co-dosed with compound IV

T2 sequence (P07947 whole entry): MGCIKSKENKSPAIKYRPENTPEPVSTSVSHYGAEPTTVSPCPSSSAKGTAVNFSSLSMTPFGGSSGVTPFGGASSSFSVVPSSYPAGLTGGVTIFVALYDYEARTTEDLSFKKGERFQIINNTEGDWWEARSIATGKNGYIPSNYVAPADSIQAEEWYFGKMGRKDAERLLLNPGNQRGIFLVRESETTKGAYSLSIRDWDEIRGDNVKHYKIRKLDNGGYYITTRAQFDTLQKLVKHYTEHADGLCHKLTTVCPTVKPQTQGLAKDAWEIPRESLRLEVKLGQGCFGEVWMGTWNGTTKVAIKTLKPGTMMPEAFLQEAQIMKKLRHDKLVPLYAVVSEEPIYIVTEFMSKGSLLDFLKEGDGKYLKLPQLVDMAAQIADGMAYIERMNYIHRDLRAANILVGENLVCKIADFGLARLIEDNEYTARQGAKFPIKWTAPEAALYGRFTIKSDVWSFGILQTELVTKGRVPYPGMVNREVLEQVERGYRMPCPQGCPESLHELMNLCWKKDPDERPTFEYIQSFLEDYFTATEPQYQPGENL
T5 sequence (P42685 whole entry): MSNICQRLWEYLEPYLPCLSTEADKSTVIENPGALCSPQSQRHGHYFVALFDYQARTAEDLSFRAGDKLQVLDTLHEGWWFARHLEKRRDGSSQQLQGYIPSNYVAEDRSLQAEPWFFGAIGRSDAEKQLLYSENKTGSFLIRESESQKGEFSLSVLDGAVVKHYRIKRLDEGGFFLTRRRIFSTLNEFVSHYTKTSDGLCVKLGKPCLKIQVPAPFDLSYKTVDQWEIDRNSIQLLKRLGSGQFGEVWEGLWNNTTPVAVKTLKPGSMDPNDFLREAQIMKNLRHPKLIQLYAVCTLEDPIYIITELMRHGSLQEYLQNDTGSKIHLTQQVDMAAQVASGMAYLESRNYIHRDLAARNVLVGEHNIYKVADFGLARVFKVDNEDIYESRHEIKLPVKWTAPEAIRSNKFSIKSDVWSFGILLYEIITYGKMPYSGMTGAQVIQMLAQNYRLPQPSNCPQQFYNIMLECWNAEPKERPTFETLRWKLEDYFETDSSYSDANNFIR
T3 sequence (P00519 whole entry E255K): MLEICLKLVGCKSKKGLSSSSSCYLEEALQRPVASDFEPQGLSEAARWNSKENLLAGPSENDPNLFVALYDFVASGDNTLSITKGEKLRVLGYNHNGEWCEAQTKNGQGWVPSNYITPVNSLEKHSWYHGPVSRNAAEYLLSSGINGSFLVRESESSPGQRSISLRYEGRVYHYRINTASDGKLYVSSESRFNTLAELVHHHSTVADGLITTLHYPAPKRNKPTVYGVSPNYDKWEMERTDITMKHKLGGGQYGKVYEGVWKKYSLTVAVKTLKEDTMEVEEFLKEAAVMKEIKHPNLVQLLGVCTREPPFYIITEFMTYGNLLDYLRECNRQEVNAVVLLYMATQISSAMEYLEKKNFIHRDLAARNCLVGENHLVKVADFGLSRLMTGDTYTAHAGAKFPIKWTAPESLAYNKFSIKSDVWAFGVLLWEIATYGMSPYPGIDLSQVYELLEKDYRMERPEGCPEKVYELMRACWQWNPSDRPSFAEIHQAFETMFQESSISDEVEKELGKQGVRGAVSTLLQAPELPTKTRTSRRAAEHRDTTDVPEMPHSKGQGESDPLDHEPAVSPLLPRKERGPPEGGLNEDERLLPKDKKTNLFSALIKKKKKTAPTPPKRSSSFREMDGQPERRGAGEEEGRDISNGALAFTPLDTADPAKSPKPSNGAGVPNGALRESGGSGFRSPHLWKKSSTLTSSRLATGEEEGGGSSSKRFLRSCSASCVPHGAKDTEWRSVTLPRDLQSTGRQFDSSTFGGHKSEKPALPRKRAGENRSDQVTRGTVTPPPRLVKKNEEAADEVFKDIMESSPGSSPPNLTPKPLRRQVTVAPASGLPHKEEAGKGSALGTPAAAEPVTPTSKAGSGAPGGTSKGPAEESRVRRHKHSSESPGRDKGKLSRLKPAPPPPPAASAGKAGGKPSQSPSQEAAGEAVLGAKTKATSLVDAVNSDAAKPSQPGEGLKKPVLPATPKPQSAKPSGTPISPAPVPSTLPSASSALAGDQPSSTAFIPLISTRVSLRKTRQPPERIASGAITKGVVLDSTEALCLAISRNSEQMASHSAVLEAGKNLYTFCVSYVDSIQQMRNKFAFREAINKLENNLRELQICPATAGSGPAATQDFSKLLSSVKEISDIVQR
T1 sequence (P09619 33-1106): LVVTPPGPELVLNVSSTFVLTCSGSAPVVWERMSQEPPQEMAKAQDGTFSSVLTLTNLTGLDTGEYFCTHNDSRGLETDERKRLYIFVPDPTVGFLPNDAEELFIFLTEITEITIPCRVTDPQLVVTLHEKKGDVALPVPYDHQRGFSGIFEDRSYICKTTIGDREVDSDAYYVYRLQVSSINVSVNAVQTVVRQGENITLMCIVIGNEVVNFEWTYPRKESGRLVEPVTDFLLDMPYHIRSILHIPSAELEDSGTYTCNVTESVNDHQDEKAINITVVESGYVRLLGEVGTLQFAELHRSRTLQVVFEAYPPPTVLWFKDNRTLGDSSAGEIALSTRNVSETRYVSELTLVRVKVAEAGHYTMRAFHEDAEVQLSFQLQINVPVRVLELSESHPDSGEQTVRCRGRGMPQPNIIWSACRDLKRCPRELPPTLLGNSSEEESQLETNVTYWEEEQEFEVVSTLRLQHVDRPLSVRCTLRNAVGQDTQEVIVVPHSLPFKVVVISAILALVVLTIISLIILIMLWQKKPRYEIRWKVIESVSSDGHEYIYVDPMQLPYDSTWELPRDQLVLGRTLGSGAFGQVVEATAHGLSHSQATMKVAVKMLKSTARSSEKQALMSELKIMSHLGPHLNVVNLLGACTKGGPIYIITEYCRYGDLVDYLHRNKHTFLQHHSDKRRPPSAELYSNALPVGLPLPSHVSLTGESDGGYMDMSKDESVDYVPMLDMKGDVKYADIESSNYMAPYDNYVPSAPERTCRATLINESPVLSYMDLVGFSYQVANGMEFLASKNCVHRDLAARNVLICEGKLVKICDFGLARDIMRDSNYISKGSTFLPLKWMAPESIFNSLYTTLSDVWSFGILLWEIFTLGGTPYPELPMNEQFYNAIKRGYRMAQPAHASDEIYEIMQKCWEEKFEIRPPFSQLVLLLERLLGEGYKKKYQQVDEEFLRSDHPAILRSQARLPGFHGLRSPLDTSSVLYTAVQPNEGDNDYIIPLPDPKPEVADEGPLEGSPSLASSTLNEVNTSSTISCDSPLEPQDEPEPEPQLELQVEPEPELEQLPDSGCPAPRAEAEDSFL
T7 sequence (P09769 whole entry): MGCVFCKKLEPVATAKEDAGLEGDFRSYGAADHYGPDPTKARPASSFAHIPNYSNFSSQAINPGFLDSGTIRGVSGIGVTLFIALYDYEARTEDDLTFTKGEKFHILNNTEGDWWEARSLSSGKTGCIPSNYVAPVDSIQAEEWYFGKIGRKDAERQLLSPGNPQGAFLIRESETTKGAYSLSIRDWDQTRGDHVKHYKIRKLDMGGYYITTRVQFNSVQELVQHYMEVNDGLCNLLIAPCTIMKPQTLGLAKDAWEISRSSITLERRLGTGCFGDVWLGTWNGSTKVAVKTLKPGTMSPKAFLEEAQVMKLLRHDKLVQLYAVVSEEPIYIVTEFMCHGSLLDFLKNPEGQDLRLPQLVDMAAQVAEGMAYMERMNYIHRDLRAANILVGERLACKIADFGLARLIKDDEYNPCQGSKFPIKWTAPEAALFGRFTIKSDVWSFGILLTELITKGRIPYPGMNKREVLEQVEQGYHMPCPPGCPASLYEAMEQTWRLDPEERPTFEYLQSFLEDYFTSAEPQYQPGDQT
T6 sequence (P12931 whole entry): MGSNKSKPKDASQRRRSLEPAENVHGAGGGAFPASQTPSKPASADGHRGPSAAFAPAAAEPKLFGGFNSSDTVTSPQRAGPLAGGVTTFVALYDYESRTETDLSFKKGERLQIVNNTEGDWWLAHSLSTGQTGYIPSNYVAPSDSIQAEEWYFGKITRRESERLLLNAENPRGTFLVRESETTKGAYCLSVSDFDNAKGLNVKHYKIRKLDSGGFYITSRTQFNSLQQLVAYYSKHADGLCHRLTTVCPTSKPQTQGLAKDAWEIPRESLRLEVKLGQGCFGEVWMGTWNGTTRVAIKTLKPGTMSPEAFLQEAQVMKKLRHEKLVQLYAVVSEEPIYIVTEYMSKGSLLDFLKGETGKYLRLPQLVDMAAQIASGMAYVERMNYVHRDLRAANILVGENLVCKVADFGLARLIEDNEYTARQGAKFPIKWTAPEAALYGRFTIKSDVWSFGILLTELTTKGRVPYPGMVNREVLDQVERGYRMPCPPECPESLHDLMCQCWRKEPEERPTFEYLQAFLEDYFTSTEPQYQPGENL

inhibition at 0.01 µM (PDGFRβ) | inhibition at 0.001 µM (YES) | inhibition at 0.01 µM (YES) | inhibition at 0.001 µM (ABL(E255K)) | inhibition at 0.01 µM (ABL(E255K)) | inhibition at 0.001 µM (TEC) | intravenous plasma clearance compared to dasatinib and compound III [1] | V [1, 3] | inhibition at 0.01 µM (FRK) | inhibition at 0.001 µM (SRC) | inhibition at 0.01 µM (SRC) | inhibition at 0.01 µM (FGR) | In vitro t1/2 [2] | metabolic stability compared to dasatinib [2] | inhibition at 0.01 µM (DDR2) | F, percent oral bioavailability ([1]; PO 5 mg/kg versus intravenous 1 mg/kg, AUCinf dose normalized, Table 3) | V [1, 4] | Structure (SMILES) | IC50 (Mino) | intravenous volume of distribution compared to dasatinib and compound III [1]
> 50% | > 50% | > 50% | > 50% | > 50% | > 50% | much lower intravenous plasma clearance | 1 ± 0 L/kg | > 50% | > 50% | > 50% | > 50% | 0.983 h | significantly greater stability | > 50% | – | – | Cc1nc(Nc2ncc(C(=O)Nc3c(C)cccc3Cl)s2)cc(N2CC[C@@H](O)C2)n1 [Compound XI, N-(2-chloro-6-methylphenyl)-2-[[2-methyl-6-((R)-3-hydroxypyrrolidin-1-yl)pyrimidin-4-yl]amino]thiazole-5-carboxamide] | < 50 nM | significantly lower intravenous volume of distribution values
> 50% | > 50% | > 50% | > 50% | > 50% | > 50% | much lower intravenous plasma clearance | 1 ± 0 L/kg | > 50% | > 50% | > 50% | > 50% | 1.45 h | significantly greater stability | > 50% | 18.9±2% | – | Cc1nc(Nc2ncc(C(=O)Nc3c(C)cccc3Cl)s2)cc(N2CC[C@H](O)C2)n1 [Compound X, N-(2-chloro-6-methylphenyl)-2-[[2-methyl-6-((S)-3-hydroxypyrrolidin-1-yl)pyrimidin-4-yl]amino]thiazole-5-carboxamide] | < 50 nM | significantly lower intravenous volume of distribution values
> 50% | > 50% | > 50% | > 50% | > 50% | > 50% | much lower intravenous plasma clearance | – | > 50% | > 50% | > 50% | > 50% | 1.47 h | significantly greater stability | > 50% | – | 1 ± 0 L/kg | [2H]c1cc(C)c(NC(=O)c2cnc(Nc3cc(N4CC[C@H](O)C4)nc(C)n3)s2)c(Cl)c1 [Compound IV, N-(2-chloro-4-deutero-6-methylphenyl)-2-[[2-methyl-6-((S)-3-hydroxypyrrolidin-1-yl)pyrimidin-4-yl]amino]thiazole-5-carboxamide] | < 50 nM | significantly lower intravenous volume of distribution values
> 50% | > 50% | > 50% | > 50% | > 50% | > 50% | much lower intravenous plasma clearance | – | > 50% | > 50% | > 50% | > 50% | 1.12 h | significantly greater stability | > 50% | – | 1 ± 0 L/kg | [2H]c1cc(C)c(NC(=O)c2cnc(Nc3cc(N4CC[C@@H](O)C4)nc(C)n3)s2)c(Cl)c1 [Compound V, N-(2-chloro-4-deutero-6-methylphenyl)-2-[[2-methyl-6-((R)-3-hydroxypyrrolidin-1-yl)pyrimidin-4-yl]amino]thiazole-5-carboxamide] | < 50 nM | significantly lower intravenous volume of distribution values
